From PMC10223470 (Molecules, 2023)

Key:
mice [1] = assay: Motor coordination, chimney test; format: in vivo; conditions: 25, 50 and 75 mg/kg i.p., 60 min before testing
Experimental: The experiments were carried out on 6 weeks old naive Swiss male mice (Experimental Medicine Center (OMD), Lublin, Poland), weighing 28–30 g. The cages with mice were located in air-conditioned rooms maintaining the ambient temperature within the range of 23–25 °C. The animals were provided with a natural 12 h day/night cycle, replicating the day and night mode. Each testing group was represented by 8–10 animals, depending on the research schedule. All experiments were conducted according to the National Institute of Health Guidelines for the Care and Use of Laboratory Animals (8th edition) and to the European Community Council Directive for the Care and Use of Laboratory Animals of 22 September 2010 (2010/63/EU) and were approved by the Local Ethical Committee (number of ethical approval: 147/2018). Compound 17 (25, 50, 75 mg/kg) was suspended in 1% Tween 80 in saline solution and was administered intraperitoneally (i.p.) 60 min before the test. […] Imipramine hydrochloride (30 mg/kg, Sigma-Aldrich was administered intraperitoneally (i.p.) 60 min before the test. […] Sigma-Aldrich, USA) was given subcutaneously (s.c.). Prior to administration, the agent was dissolved in saline and injected 30 min before the test. […] Motor coordination has been assessed in mice using the chimney test and the rotarod test, according to the procedure we had used before. […]

human 5-HT7 receptor = biological target: T1, human 5-HT7 receptor (Homo sapiens, UniProt P34969); assay: Competition radioligand binding at human 5-HT7 receptor ([3H]-SB269970); conditions: mean ± SEM of 2 independent experiments, read-out: hu5-HT7 % inh. at 10 µM
T1 construct: expressed in transfected cells; host or cells: HEK293
T1 sequence (P34969 whole entry): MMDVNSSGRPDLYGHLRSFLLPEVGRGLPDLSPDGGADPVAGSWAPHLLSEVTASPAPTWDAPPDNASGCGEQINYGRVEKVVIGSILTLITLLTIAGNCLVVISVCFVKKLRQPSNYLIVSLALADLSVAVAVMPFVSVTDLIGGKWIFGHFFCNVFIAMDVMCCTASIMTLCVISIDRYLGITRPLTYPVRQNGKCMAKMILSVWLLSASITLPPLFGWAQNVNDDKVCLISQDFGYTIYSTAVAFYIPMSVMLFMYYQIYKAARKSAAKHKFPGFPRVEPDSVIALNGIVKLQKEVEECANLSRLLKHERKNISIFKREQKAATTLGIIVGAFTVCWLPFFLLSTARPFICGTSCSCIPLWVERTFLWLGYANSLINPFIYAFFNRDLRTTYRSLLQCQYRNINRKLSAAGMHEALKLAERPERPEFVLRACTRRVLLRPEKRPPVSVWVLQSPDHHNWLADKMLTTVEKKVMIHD
Experimental: Competition radioligand binding assays were performed on membranes isolated from cell lines stably expressing the cloned human receptors, which were either in-house or commercially available. […] Assays (250 μL assay final volume) were carried out in 96-well polypropylene plates in duplicate. In short, the suspension of appropriate membrane protein was incubated in an assay buffer with the addition of the corresponding radioligand, in the presence or absence of a tested compound or reference compound. […] After the incubation, the content of the test plates was transferred to 96 well plates with glass fiber filter GF/B or GF/C, previously pretreated with polyethyleneimine (PEI), and rapidly filtered with the use of vacuum, followed by rapid washing with cold (4 °C) wash buffer. After that, the filter plates were dried at 60 °C for 1 h. Then, 30 μL of liquid scintillation cocktail (UniverSol-ES, MP Biomedicals, Solon, OH, USA) was added to each well of the filter plates, and the radioactivity was measured in a MicroBeta^2 microplate scintillation counter (PerkinElmer, Madrid, Spain).
Competition binding curves were fitted to a one-site competition binding model (Fit Ki) with the use of Prism 7 software (GraphPad, San Diego, CA, USA). logKi (log of the equilibrium dissociation constant (Ki)) values were obtained after constraining the concentration of radioligand employed in the assay and its dissociation constant (KD) as determined in saturation radioligand binding assays.

mice [2] = assay: Elevated plus-maze (EPM) test; format: in vivo; conditions: 25, 50 and 75 mg/kg i.p., 60 min before the test
Experimental: The experiments were carried out on 6 weeks old naive Swiss male mice (Experimental Medicine Center (OMD), Lublin, Poland), weighing 28–30 g. The cages with mice were located in air-conditioned rooms maintaining the ambient temperature within the range of 23–25 °C. The animals were provided with a natural 12 h day/night cycle, replicating the day and night mode. Each testing group was represented by 8–10 animals, depending on the research schedule. All experiments were conducted according to the National Institute of Health Guidelines for the Care and Use of Laboratory Animals (8th edition) and to the European Community Council Directive for the Care and Use of Laboratory Animals of 22 September 2010 (2010/63/EU) and were approved by the Local Ethical Committee (number of ethical approval: 147/2018).
Compound 17 (25, 50, 75 mg/kg) was suspended in 1% Tween 80 in saline solution and was administered intraperitoneally (i.p.) 60 min before the test. Diazepam (DZ, Relanium, Polfa, Poland) at a dose of 1 mg/kg was diluted in 0.9% saline containing 1% Tween 80 and was administered subcutaneously (s.c.), 60 min before the test. Imipramine hydrochloride (30 mg/kg, Sigma-Aldrich was administered intraperitoneally (i.p.) 60 min before the test. D-amphetamine sulfate (3 mg/kg; Sigma-Aldrich, USA) was given subcutaneously (s.c.). Prior to administration, the agent was dissolved in saline and injected 30 min before the test. Control animals received an (i.p.) or (s.c.) injection of a respective vehicle. All compounds were injected in a manner generally accepted in experimental pharmacology, in an amount of 10 mL/kg body weight.
The experiment was carried out on mice according to the method of Lister. […] The number of entries into the open arms and the time spent in these arms were scored for a 5-min test period. […] The following measures were obtained from the test: the total number of arm entries, the percentage of entries into the open arms, the time spent in the open arms expressed as a percentage of the time spent in both the open and closed arms. […]

O=C(CCN1C(=O)CSc2ccccc21)Nc1ccc(Cl)cc1 [Compound 17, N-(4-Chlorophenyl)-3-(3-oxo-2,3-dihydro-4H-benzo[b][1,4]thiazin-4-yl)propanamide]
effect on behavior in the chimney test (mice [1]): did not change the behavior | time to leave the chimney (mice [1]): ≤ 30 s | inhibition at 10 µM (human 5-HT7 receptor): 5 ± 11% | percentage of entries into open arms (mice [2]): did not change | percentage of the time spent in open arms (mice [2]): did not change
